IC50 data for 24 compounds are collected here from patent US20110190227A1, “Antagonists of Prostaglandin D2 Receptors” (Amira Pharmaceuticals, Inc., priority 2008, published 2011).

The target of assay [1] is T1, human DP1 receptor (Homo sapiens, UniProt Q13258).
T1 construct: tissue Biological Specialty Corporation; host or cells: human platelets, membrane preparation
T1 sequence (Q13258 1-359): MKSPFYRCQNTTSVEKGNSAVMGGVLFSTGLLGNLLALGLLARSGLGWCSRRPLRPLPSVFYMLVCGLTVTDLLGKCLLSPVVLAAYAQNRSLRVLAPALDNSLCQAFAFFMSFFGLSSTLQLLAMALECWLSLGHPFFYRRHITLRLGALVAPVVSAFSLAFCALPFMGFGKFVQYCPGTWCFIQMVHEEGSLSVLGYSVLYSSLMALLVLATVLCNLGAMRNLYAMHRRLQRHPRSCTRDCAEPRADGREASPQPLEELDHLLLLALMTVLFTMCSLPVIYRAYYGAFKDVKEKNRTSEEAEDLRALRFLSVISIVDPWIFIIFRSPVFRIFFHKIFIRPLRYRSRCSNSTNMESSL
Kind of assay: DP1 radioligand membrane binding assay ([3H]BWA868C). Particulars: human platelet membranes, 2 nM [3H]BWA868C; read-out: hDP1. How it is done:
The ability of a compound to bind to the human DP1 receptor was evaluated via a radioligand membrane binding assay using the DP1 selective synthetic ligand [^3H]BWA868C. Packed human platelets (Biological Specialty Corporation), were resuspended in 6 volumes of Hepes/HBSS buffer (10 mM Hepes, 1 mM DTT in Hanks Balanced Salt Solution (HBSS), lysed and centrifuged at 75,000×g to pellet the membranes. Membranes were resuspended in Hepes/HBSS buffer to approximately 12 mg protein/ml. Membranes (20 μg protein/well) are incubated in 96-well plates with 2 nM [^3H]BWA868C and test compound in Assay Buffer (50 mM Hepes, 10 mM MnCl2, 1 mM EDTA, plus or minus 0.2% human serum albumin, pH 7.4) for 60 minutes at room temperature. The reactions are terminated by rapid filtration through Whatman GF/C glass fibre filter plates. The filter plates were pre-soaked in 0.33% polyethylenimine for 30 minutes at room temperature then washed in Wash Buffer (50 mM Hepes, 0.5 M NaCl pH 7.4) prior to harvesting. After harvesting, the filter plates are washed 3 times with 1 ml cold Wash Buffer then dried. Scintillant is then added to the plates and the radioactivity retained on the filters is determined on a Packard TopCount (Perkin Elmer). Specific binding is determined as total radioactive binding minus non-specific binding in the presence of 10 μM BW A868C. IC50s were determined using GraphPad prism analysis of drug titration curves.

Assay [2] has as its target T2, human DP2 receptor (Homo sapiens, UniProt Q9Y5Y4).
T2 construct: expressed in transfected cells
T2 sequence (Q9Y5Y4 1-395): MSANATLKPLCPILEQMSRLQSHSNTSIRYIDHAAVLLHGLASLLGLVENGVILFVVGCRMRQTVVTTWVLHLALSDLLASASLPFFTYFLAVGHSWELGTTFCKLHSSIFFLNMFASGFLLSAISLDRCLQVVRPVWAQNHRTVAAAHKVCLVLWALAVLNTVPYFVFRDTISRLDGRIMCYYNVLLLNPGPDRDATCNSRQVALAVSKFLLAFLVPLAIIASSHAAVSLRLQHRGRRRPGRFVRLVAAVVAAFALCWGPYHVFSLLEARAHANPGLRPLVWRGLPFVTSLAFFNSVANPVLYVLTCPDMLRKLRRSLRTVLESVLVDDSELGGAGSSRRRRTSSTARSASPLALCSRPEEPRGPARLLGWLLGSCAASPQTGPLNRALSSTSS
Kind of assay: DP2/CRTH2 radioligand binding assay ([3H]PGD2). Particulars: membranes of HEK293 cells expressing recombinant human DP2, 1 nM [3H]PGD2; read-out: hDP2. The protocol: The ability of a compound to bind to the human DP2 receptor is assessed via a radioligand binding assay using [^3H]PGD2. HEK293 cells stably expressing recombinant human DP2 are resuspended in 10 mM Hepes, 7.4 containing 1 mM DTT, lysed and centrifuged at 75,000×g to pellet the membranes. The membranes are resuspended in 10 mM Hepes, 7.4 containing 1 mM DTF and 10% glycerol to approximately 5 mg protein/ml. Membranes (2-10 […]) are incubated in 96-well plates with 1 nM [^3H]PGD2 and test compound in Assay Buffer (50 mM Hepes, 10 mM MnCl2, 1 mM EDTA, plus or minus 0.2% human serum albumin, pH 7.4) for 60 minutes at room temperature. The reactions are terminated by rapid filtration through Whatman GF/C glass fibre filter plates. The filter plates were pre-soaked in 0.33% polythylenimine for 30 minutes at room temperature then washed in Wash Buffer (50 mM Hepes, 0.5 M NaCl pH 7.4) prior to harvesting. After harvesting, the filter plates are washed 3 times with 1 ml cold Wash Buffer then dried. Scintillant is then added to the plates and the radioactivity retained on the filters is determined on a Packard TopCount (Perkin Elmer). Specific binding is determined as total radioactive binding minus non-specific binding in the presence of 10 μM PGD2. IC50s were determined using GraphPad prism analysis of drug titration curves.

SMILES strings stand for the structures. pIC50: −log10 of the molar value.

Regarding `CN(C)CCSCc1cc(Br)ccc1Oc1cccc(CC(=O)O)c1` [Compound 1-18, {3-[4-Bromo-2-(2-dimethylamino-ethylsulfanylmethyl)-phenoxy]-phenyl}-acetic acid], the pIC50 in assay [1] and in assay [2] was less than 6.00 in each case.
For the compound `O=C(O)CSCc1cc(Br)ccc1Oc1cccc(CC(=O)O)c1` [Compound 1-19, [3-(4-Bromo-2-carboxymethylsulfanylmethyl-phenoxy)-phenyl]-acetic acid], the pIC50 in assay [1] and in assay [2] was less than 6.00 in each case.
As for `O=C(O)Cc1cccc(Oc2ccc(Br)cc2CS(=O)(=O)c2ccccc2)c1` [Compound 1-20, [3-(2-Benzenesulfonylmethyl-4-bromo-phenoxy)-phenyl]-acetic acid], the figures for the pIC50 in assay [1] and in assay [2] were less than 6.00 and greater than 6.52, respectively.
As to `O=C(O)Cc1cccc(Oc2ccc(Br)cc2CS(=O)(=O)Cc2ccccc2)c1` [Compound 1-21, [3-(4-Bromo-2-phenylmethanesulfonylmethyl-phenoxy)-phenyl]-acetic acid], the pIC50 is 6.00 to 6.52 in assay [1] and greater than 6.52 in assay [2].
The like results for `O=C(O)Cc1cccc(Oc2ccc(Br)cc2CS(=O)(=O)CCc2ccccc2)c1` [Compound 1-22, {3-[4-Bromo-2-(2-phenyl-ethanesulfonylmethyl)-phenoxy]-phenyl}-acetic acid] were, in that order, less than 6.00 and greater than 6.52.
The like results for `O=C(O)Cc1cccc(Oc2ccc(Br)cc2CS(=O)(=O)c2ccccn2)c1` [Compound 1-23, {3-[4-Bromo-2-(pyridine-2-sulfonylmethyl)-phenoxy]-phenyl}-acetic acid] were, in that order, less than 6.00 and 6.00 to 6.52.
For `O=C(O)Cc1cccc(Oc2ccc(Br)cc2CS(=O)(=O)c2ccc3ccccc3n2)c1` [Compound 1-24, {3-[4-Bromo-2-(quinoline-2-sulfonylmethyl)-phenoxy]-phenyl}-acetic acid], the pIC50 in assay [1] and in assay [2] was less than 6.00 throughout.
In the case of `O=C(O)Cc1cccc(Oc2ccc(Br)cc2CS(=O)(=O)c2nccs2)c1` [Compound 1-25, {3-[4-Bromo-2-(thiazole-2-sulfonylmethyl)-phenoxy]-phenyl}-acetic acid], the pIC50 in assay [1] was less than 6.00; in assay [2], 6.00 to 6.52.
The like results for `Cc1nnc(S(=O)(=O)Cc2cc(Br)ccc2Oc2cccc(CC(=O)O)c2)s1` [Compound 1-26, {3-[4-Bromo-2-(5-methyl-[1,3,4]thiadiazole-2-sulfonylmethyl)-phenoxy]-phenyl}-acetic acid] were, in that order, less than 6.00 and greater than 6.52.
The like results for `CN(C)CCS(=O)(=O)Cc1cc(Br)ccc1Oc1cccc(CC(=O)O)c1` [Compound 1-27, {3-[4-Bromo-2-(2-dimethylamino-ethanesulfonylmethyl)-phenoxy]-phenyl}-acetic acid] were, in that order, less than 6.00 and greater than 6.52.
The like results for `O=C(O)Cc1cccc(Oc2ccc(Br)cc2C[S+]([O-])c2ccccc2)c1` (stereo not drawn) [Compound 1-28, [3-(2-Benzenesulfinylmethyl-4-bromo-phenoxy)-phenyl]-acetic acid] were, in that order, less than 6.00 and greater than 6.52.
Consider `O=C(O)Cc1cccc(Oc2ccc(Br)cc2C[S+]([O-])Cc2ccccc2)c1` (stereo not drawn) [Compound 1-29, [3-(4-Bromo-2-phenylmethanesulfinylmethyl-phenoxy)-phenyl]-acetic acid], for which the pIC50 is less than 6.00 in assay [1] and greater than 6.52 in assay [2].
With `O=C(O)Cc1cccc(Oc2ccc(Br)cc2C[S+]([O-])CCc2ccccc2)c1` (stereo not drawn) [Compound 1-30, {3-[4-Bromo-2-(2-phenyl-ethanesulfinylmethyl)-phenoxy]-phenyl}-acetic acid], the pIC50 in assay [1] is less than 6.00; in assay [2] it was greater than 6.52.
On to `O=C(O)Cc1cccc(Oc2ccc(Br)cc2C[S+]([O-])c2ccccn2)c1` (stereo not drawn) [Compound 1-31, {3-[4-Bromo-2-(pyridine-2-sulfinylmethyl)-phenoxy]-phenyl}-acetic acid], for which the pIC50 in assay [1] and in assay [2] was less than 6.00 each time.
`O=C(O)Cc1cccc(Oc2ccc(Br)cc2C[S+]([O-])c2ccc3ccccc3n2)c1` (stereo not drawn) [Compound 1-32, {3-[4-Bromo-2-(quinoline-2-sulfinylmethyl)-phenoxy]-phenyl}-acetic acid]: the pIC50 is less than 6.00 in assay [1] and greater than 6.52 in assay [2].
The like results for `O=C(O)Cc1cccc(Oc2ccc(Br)cc2C[S+]([O-])c2nccs2)c1` (stereo not drawn) [Compound 1-33, {3-[4-Bromo-2-(thiazole-2-sulfinylmethyl)-phenoxy]-phenyl}-acetic acid] were, in that order, less than 6.00 and greater than 6.52.
For the compound `Cc1nnc([S+]([O-])Cc2cc(Br)ccc2Oc2cccc(CC(=O)O)c2)s1` (stereo not drawn) [Compound 1-34, {3-[4-Bromo-2-(5-methyl-[1,3,4]thiadiazole-2-sulfinylmethyl)-phenoxy]-phenyl}-acetic acid], the pIC50 was less than 6.00 in assay [1] and greater than 6.52 in assay [2].
The like results for `CN(C)CC[S+]([O-])Cc1cc(Br)ccc1Oc1cccc(CC(=O)O)c1` (stereo not drawn) [Compound 1-35, {3-[4-Bromo-2-(2-dimethylamino-ethanesulfinylmethyl)-phenoxy]-phenyl}-acetic acid] were, in that order, less than 6.00 and less than 6.00.
Consider `O=C(O)Cc1cccc(Oc2ccc(Br)cc2C[S+]([O-])CC(=O)O)c1` (stereo not drawn) [Compound 1-36, [3-(4-Bromo-2-carboxymethanesulfinylmethyl-phenoxy)-phenyl]-acetic acid], for which the pIC50 in assay [1] and in assay [2] was less than 6.00 throughout.
As for `O=C(O)Cc1cccc(Oc2ccc(Br)cc2COc2ccccc2)c1` [Compound 1-37, [3-(4-Bromo-2-phenoxymethyl-phenoxy)-phenyl]-acetic acid], the figures for the pIC50 in assay [1] and in assay [2] were 6.00 to 6.52 and less than 6.00, respectively.
In the same order, the values of `COc1ccc(CC(=O)O)cc1Oc1ccc(Cl)cc1CSCc1ccccc1` [Compound 1-54, [3-(2-Benzylsulfanylmethyl-4-chloro-phenoxy)-4-methoxy-phenyl]-acetic acid] are 6.00 to 6.52 and greater than 6.52.
In the same order, the values of `COc1ccc(CC(=O)O)cc1Oc1ccc(Cl)cc1C[S+]([O-])Cc1ccccc1` (stereo not drawn) [Compound 1-55, [3-(4-Chloro-2-phenylmethanesulfinylmethyl-phenoxy)-4-methoxyphenyl]-acetic acid] are less than 6.00 and 6.00 to 6.52.
For the compound `COc1ccc(CC(=O)O)cc1Oc1ccc(Cl)cc1CS(=O)(=O)Cc1ccccc1` [Compound 1-56, [3-(4-Chloro-2-phenylmethanesulfonylmethyl-phenoxy)-4-methoxy-phenyl]-acetic acid], the pIC50 was less than 6.00 in assay [1] and greater than 6.52 in assay [2].
In the same order, the values of `Cn1cc(-c2ccc(Oc3cccc(CC(=O)O)c3)c(CSc3ccccc3)c2)cn1` [Compound 1-57, {3-[4-(1-Methyl-1H-pyrazol-4-yl)-2-phenylsulfanylmethyl-phenoxy]-phenyl}-acetic acid] are less than 6.00 and 6.00 to 6.52.
